# According to patent publication EP4737445A1, “NOVEL SATURATED HETEROCYCLE-SUBSTITUTED HETEROARYL-CARBONOHYDRAZONOYL DICYANIDE COMPOUND AND USE THEREOF” (Korea Institute of Science and Technology, priority 2023, dated 2025):
# Columns and labels:
# Tau = biological target: T1, Tau (Homo sapiens, UniProt P10636); test: Tau aggregation inhibition in Tau-BiFC cell model (Forskolin-induced); type: cell-based
# T1 construct: BiFC fluorescent-protein fragments (two complementary halves on two tau copies); expressed in transfected cells
# Method: (§1) To screen for new tau aggregation inhibitors, a Tau-BiFC cell model that facilitates observation of tau oligomer formation in living cells was used. Tau-BiFC cells were dispensed into a 384-well plate, and the next day, the compounds prepared according to Examples 1 to 46 were treated at concentrations of 1, 3, and 10 µM, respectively, together with Forskolin (treatment concentration 30 µM), which is a compound that induces tau aggregation by activating the tau phosphorylation enzyme PKA. After 48 hours, nuclei within cells were stained using Hoechst (treatment concentration 2 µg/mL), and BiFC fluorescence intensity was automatically quantified using Operetta (Perkin Elmer) to count the stained nuclei in each well from the entire plate. The group treated only with Forskolin, which induces tau aggregation, was set as the reference point with 100% tau aggregation state, and the effect was confirmed by the formula "BiFC fluorescence intensity by the compounds synthesized according to the Examples of the disclosure/(fluorescence intensity of the control group treated only with Forskolin that induces tau aggregation - fluorescence intensity of the untreated control group) × 100". In addition, the degree of cytotoxicity induced by the newly synthesized compounds was also calculated using the formula "(number of stained nuclei in the compound-treated group/number of stained nuclei in the Forskolin-treated group) × 100", with the group treated only with Forskolin as the reference point at 100% viability. From the treatment results, substances that inhibit intracellular tau aggregation were identified through screening from a series of candidates based on the criteria of 70% or more tau aggregation inhibition and 100% cell viability at a compound treatment concentration of 10 µM.
# (§2) To confirm the tau aggregation inhibitory effect according to the concentration of the compounds screened in Experimental Example 1, the screened compounds were treated to Tau-BiFC cells at concentrations of 0.03, 0.1, 0.3, 1, 3, 10, and 30 µM, respectively, together with Forskolin (treatment concentration 30 µM), which is a tau aggregation-inducing substance. After 48 hours, cell images were examined to analyze the tau aggregation reaction and degree of cytotoxicity. The IC50 and toxicity of the compounds were analyzed by nonlinear regression analysis using Prism software (GraphPad). The calculated results for representative compounds are shown in Table 3 below: Tau aggregation inhibitory effect and cell viability of novel compounds.
# Tau-BiFC cells = test: Cell viability (stained nuclei count) in Tau-BiFC cells; type: cell-based; conditions: @10 µM; Tau-BiFC cell line; Forskolin-only group = 100%
# Method: as §1, §2
# TDP-43 protein = biological target: T2, TDP-43 protein (Homo sapiens, UniProt Q13148); test: TDP-43 aggregation inhibition in TDP-43-BiFC cell model (Forskolin-induced); type: cell-based; conditions: read-out: TDP-43 protein aggregation inhibitory effect: Aggregation inhibitory effect (%) (@3 uM)
# T2 construct: BiFC fluorescent-protein fragments (two complementary halves); expressed in transfected cells
# Method: (§3) To screen for new TDP-43 aggregation inhibitors, a TDP-43-BiFC cell model that facilitates observation of TDP-43 aggregate formation in living cells was used. Specifically, TDP-43-BiFC cells were dispensed into a 384-well plate, and the next day, the compounds prepared according to Examples 1 to 46 were treated at concentrations of 3 and 10 µM, respectively, together with Forskolin (treatment concentration 30 µM), which is a compound that induces TDP-43 aggregation by activating the phosphorylation enzyme PKA. After 48 hours, nuclei within cells were stained using Hoechst (treatment concentration 1 µg/mL), and BiFC fluorescence intensity was automatically quantified using Operetta (PerkinElmer) to count the stained nuclei in each well from the entire plate. The group treated only with Forskolin, which induces TDP-43 aggregation, was set as the reference point with 100% TDP-43 aggregation state, and the effect was confirmed by the formula "(BiFC fluorescence intensity by the compounds synthesized according to the Examples of the disclosure - fluorescence intensity of the untreated control group)/(fluorescence intensity of the control group treated only with Forskolin that induces TDP-43 aggregation - fluorescence intensity of the untreated control group) × 100". In addition, the degree of cytotoxicity induced by the newly synthesized compounds was also calculated using the formula "(number of stained nuclei in the compound-treated group/number of stained nuclei in the Forskolin-treated group) × 100", with the group treated only with Forskolin as the reference point at 100% viability. From the treatment results, substances that inhibit intracellular TDP-43 aggregation were identified through screening from a series of candidates based on the criteria of 80% or more TDP-43 aggregation inhibition and 60% cell viability at a compound treatment concentration of 3 µM.
# (§4) Furthermore, to confirm the TDP-43 aggregation inhibitory effect according to the concentration of the compounds screened in Experimental Example 3, the screened compounds were treated to […] at concentrations of 0.003, 0.01, 0.03, 0.1, 0.3, 1, 3, and 10 µM, respectively, together with Forskolin (treatment concentration 30 µM), which is a TDP-43 aggregation-inducing substance. After 48 hours, cell images were examined to analyze the TDP-43 aggregation reaction and degree of cytotoxicity. The IC50 and toxicity of the compounds were analyzed by nonlinear regression analysis using Prism software (GraphPad). The calculated results for representative compounds are shown in Table 4 below: TDP-43 protein aggregation inhibitory effect and cell viability of novel compounds.
# TDP-43 BiFC cells = test: Cell viability (stained nuclei count) in TDP-43-BiFC cells; type: cell-based; conditions: Forskolin-only group = 100%
# Method: as §3, §4
# [1] = Liver microsomal stability, human; type: in vitro ADME; conditions: 1 µM compound; 0.5 mg/mL microsomes; NADPH; 30 minutes at 37°C
# Method: (§5) Liver microsomal stability by the compounds prepared according to Examples 1 to 46 was confirmed. Specifically, four types of liver microsomes (human, dog, rat, and mouse each at 0.5 mg/mL), 0.1 M phosphate buffer solution (pH 7.4), and the compounds at 1 µM concentration were added and pre-incubated at 37°C for 5 minutes, and then NADPH generation system solution was added and incubated at 37°C for an additional 30 minutes. Thereafter, an acetonitrile solution containing an internal standard (chloropropamide) was added to terminate the reaction, and after centrifugation for 5 minutes (14,000 rpm, 4°C), the supernatant was injected into an LC-MS/MS system to analyze the substrate drug, thereby evaluating the metabolic stability of 8 compounds.
# (§6) The amount of remaining substrate through the reaction was analyzed using a Shimadzu Nexera XR system and TSQ vantage (Thermo). A Kinetex XB-C18 (2.1 × 100 mm, 2.6 µm, particle size; Phenomenex, USA) was used as the HPLC column, and (A) distilled water containing 0.1% formic acid and (B) acetonitrile containing 0.1% formic acid were used as mobile phases. Analyst software (version 1.6.3) and Xcalibur (version 1.6.1) were used for data analysis. The calculated results are shown in Table 5 below: Liver microsomal stability data of novel compounds from […] (human, rat, and mouse).
# [2] = Liver microsomal stability, rat; type: in vitro ADME; conditions: 1 µM compound; 0.5 mg/mL microsomes; NADPH; 30 minutes at 37°C
# Method: as §5, §6
# [3] = Liver microsomal stability, mouse; type: in vitro ADME; conditions: 1 µM compound; 0.5 mg/mL microsomes; NADPH; 30 minutes at 37°C
# Method: as §5, §6
# CYP1A2 = biological target: T3, CYP1A2 (Homo sapiens, UniProt P05177); test: CYP isoenzyme activity inhibition in human liver microsomes, CYP1A2; type: in vitro ADME; conditions: 10 µM compound; human liver microsomes 0.25 mg/mL; relative to control without compound
# T3 construct: human liver microsomes (0.25 mg/mL); from tissue; host or cells: human liver microsomes
# T3 sequence (P05177 1-516): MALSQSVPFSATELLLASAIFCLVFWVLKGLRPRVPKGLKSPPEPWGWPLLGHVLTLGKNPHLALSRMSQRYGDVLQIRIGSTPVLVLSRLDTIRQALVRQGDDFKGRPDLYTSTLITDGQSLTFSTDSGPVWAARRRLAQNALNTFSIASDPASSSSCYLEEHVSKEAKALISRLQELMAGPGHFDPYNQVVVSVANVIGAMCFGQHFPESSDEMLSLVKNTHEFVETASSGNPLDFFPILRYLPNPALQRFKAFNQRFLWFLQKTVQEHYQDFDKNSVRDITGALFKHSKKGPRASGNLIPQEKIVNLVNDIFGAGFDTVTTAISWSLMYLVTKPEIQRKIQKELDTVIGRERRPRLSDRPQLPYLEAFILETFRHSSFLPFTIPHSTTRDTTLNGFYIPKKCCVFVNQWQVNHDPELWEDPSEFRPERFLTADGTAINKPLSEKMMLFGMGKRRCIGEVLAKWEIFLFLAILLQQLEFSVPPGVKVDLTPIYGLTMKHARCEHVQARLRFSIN
# Method: (§7) The CYP isoenzyme activity inhibitory effect by the compounds prepared according to Examples 1 to 46 was confirmed. Specifically, human liver microsomes (0.25 mg/mL), 0.1 M phosphate buffer solution (pH 7.4), a substrate drug cocktail of five drug metabolizing enzymes (Phenacetin 50 µM, Diclofenac 10 µM, S-mephenytoin 100 µM, Dextromethorphan 5 µM, and Midazolam 2.5 µM), and the compounds were added at concentrations of 0 or 10 µM, respectively, and pre-incubated at 37°C for 5 minutes, and then NADPH generation system solution was added and incubated at 37°C for an additional 15 minutes. Thereafter, an acetonitrile solution containing an internal standard (Terfenadine) was added to terminate the reaction, and after centrifugation for 5 minutes (14,000 rpm, 4°C), the supernatant was injected into an LC-MS/MS system to simultaneously analyze the metabolites of the substrate drugs, thereby evaluating the drug metabolizing enzyme inhibitory activity.
# (§8) The metabolites of each CYP isoenzyme marker drug generated through the reaction were analyzed using a Shimadzu Nexera XR system and TSQ vantage (Thermo). A Kinetex C18 (2.1 × 100 mm, 2.6 µm, particle size; Phenomenex, USA) was used as the HPLC column, and (A) distilled water containing 0.1% formic acid and (B) acetonitrile containing 0.1% formic acid were used as mobile phases, and a gradient program as shown in Table 6 below was applied.
# (§9) The generated metabolites were quantified using MRM (Multiple Reaction Monitoring) quantitative mode, and Xcalibur (version 1.6.1) was used for data analysis. To show the CYP isoenzyme activity inhibitory effect of the novel compounds prepared according to the Examples of the disclosure, the % activity of CYP isoenzymes relative to the control group without compound addition is shown in Table 6 below. Additionally, to confirm the difference in effect according to substituents, Comparative Compounds 1 and 5, which are two compounds that share a similar parent nucleus structure with Compounds 1 to 46 of the disclosure while Cy is substituted with aromatic heteroaryl instead of saturated heterocyclyl, were selected as comparative compounds and their activities are shown together.
# CYP2C9 = biological target: T4, CYP2C9 (Homo sapiens, UniProt P11712); test: CYP isoenzyme activity inhibition in human liver microsomes, CYP2C9; type: in vitro ADME; conditions: 10 µM compound; human liver microsomes 0.25 mg/mL; relative to control without compound
# T4 construct: human liver microsomes (0.25 mg/mL); from tissue; host or cells: human liver microsomes
# Method: as §7, §8, §9
# CYP2C19 = biological target: T5, CYP2C19 (Homo sapiens, UniProt P33261); test: CYP isoenzyme activity inhibition in human liver microsomes, CYP2C19; type: in vitro ADME; conditions: 10 µM compound; human liver microsomes 0.25 mg/mL; relative to control without compound
# T5 construct: human liver microsomes (0.25 mg/mL); from tissue; host or cells: human liver microsomes
# Method: as §7, §8, §9
# CYP2D6 = biological target: T6, CYP2D6 (Homo sapiens, UniProt P10635); test: CYP isoenzyme activity inhibition in human liver microsomes, CYP2D6; type: in vitro ADME; conditions: 10 µM compound; human liver microsomes 0.25 mg/mL; relative to control without compound
# T6 construct: human liver microsomes (0.25 mg/mL); from tissue; host or cells: human liver microsomes
# Method: as §7, §8, §9
# CYP3A4 = biological target: T7, CYP3A4 (Homo sapiens, UniProt P08684); test: CYP isoenzyme activity inhibition in human liver microsomes, CYP3A4; type: in vitro ADME; conditions: 10 µM compound; human liver microsomes 0.25 mg/mL; relative to control without compound
# T7 construct: human liver microsomes (0.25 mg/mL); from tissue; host or cells: human liver microsomes
# Method: as §7, §8, §9
# T7 sequence (P08684 whole entry): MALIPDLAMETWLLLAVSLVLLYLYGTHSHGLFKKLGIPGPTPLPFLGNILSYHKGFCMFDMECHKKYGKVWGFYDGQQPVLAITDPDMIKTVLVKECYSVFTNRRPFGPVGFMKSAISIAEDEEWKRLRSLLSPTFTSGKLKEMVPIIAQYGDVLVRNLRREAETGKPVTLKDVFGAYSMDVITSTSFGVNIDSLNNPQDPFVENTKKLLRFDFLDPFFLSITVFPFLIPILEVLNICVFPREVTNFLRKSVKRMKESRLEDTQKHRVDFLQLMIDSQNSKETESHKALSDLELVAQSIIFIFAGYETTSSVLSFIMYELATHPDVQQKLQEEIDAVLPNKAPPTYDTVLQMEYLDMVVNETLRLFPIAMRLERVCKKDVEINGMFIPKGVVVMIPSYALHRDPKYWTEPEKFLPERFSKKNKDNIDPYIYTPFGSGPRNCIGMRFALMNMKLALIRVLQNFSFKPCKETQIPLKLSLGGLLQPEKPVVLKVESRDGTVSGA
# T4 sequence (P11712 whole entry): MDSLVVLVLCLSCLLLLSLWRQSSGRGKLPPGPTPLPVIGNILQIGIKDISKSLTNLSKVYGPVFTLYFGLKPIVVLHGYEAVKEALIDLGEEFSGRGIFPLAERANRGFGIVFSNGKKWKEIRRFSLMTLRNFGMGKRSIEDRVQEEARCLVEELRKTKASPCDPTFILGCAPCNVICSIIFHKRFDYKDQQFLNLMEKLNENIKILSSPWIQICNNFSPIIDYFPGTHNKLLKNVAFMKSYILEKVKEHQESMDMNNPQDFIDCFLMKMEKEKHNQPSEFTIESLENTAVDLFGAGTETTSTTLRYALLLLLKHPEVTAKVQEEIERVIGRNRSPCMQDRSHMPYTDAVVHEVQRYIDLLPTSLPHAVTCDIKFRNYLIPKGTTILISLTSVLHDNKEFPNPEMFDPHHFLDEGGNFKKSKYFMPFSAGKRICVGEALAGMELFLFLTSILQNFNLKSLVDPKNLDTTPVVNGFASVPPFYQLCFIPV
# T5 sequence (P33261 whole entry): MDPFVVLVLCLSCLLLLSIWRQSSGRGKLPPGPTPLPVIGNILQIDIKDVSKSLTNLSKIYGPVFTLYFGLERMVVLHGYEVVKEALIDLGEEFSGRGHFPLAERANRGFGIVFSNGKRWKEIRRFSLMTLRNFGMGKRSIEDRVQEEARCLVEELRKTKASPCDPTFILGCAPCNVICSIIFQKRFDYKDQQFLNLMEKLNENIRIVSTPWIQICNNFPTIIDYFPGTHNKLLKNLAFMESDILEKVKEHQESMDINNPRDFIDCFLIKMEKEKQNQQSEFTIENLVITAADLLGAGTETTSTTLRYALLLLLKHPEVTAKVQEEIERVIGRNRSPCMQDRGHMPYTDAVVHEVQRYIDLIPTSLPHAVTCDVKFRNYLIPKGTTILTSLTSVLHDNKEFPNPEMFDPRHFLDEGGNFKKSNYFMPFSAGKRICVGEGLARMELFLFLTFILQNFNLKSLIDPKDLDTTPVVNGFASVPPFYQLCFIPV
# T6 sequence (P10635 whole entry): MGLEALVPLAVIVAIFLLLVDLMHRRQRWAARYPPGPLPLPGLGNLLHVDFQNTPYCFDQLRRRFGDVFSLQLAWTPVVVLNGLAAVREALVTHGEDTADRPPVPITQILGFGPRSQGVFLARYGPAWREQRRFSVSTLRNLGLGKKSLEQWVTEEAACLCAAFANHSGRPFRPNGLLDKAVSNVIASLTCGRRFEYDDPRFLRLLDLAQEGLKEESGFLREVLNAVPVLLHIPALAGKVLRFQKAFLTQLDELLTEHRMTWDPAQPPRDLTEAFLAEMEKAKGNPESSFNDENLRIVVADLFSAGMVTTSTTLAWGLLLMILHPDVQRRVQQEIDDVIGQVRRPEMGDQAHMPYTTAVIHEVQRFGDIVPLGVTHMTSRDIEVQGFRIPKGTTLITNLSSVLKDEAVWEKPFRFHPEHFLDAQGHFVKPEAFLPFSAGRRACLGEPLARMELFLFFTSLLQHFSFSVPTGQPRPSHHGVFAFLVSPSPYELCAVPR
# T1 sequence (P10636 1-441 isoform P10636-8): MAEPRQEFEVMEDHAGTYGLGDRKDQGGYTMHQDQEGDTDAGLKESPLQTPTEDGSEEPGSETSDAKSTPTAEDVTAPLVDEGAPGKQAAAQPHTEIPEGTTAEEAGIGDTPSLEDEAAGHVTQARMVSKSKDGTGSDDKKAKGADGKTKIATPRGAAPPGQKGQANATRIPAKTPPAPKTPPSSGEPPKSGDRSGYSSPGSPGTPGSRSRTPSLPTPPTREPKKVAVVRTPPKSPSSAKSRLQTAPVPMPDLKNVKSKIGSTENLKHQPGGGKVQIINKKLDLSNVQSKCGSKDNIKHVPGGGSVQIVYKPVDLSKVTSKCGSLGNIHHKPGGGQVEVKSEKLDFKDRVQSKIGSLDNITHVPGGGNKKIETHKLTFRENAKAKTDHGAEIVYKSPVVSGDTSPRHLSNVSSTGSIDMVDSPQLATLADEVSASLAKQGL
# T2 sequence (Q13148 whole entry, the tested form may be a part): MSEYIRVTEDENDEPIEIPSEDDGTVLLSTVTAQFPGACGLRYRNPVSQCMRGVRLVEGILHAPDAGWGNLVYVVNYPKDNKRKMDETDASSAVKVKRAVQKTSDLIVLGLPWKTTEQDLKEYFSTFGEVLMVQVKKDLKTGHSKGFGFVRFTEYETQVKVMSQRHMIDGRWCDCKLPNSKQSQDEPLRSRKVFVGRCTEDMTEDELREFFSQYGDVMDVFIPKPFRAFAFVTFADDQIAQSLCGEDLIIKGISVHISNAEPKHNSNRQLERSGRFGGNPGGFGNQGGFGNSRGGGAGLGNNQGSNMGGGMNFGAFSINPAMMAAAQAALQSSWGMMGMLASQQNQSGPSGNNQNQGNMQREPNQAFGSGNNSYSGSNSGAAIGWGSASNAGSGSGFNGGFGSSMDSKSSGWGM
Compound,IC50 (Tau),Cell viability (% @10µM) (Tau-BiFC cells),inhibition at 3 µM (TDP-43 protein),Cell viability (%) (@ 3 uM) (TDP-43 BiFC cells),Human microsomes (% remaining) [1],Rat microsomes (% remaining) [2],Mouse microsomes (% remaining) [3],CYP1A2 (% activity) (CYP1A2),CYP2C9 (% activity) (CYP2C9),CYP2C19 (% activity) (CYP2C19),CYP2D6 (% activity) (CYP2D6),CYP3A4 (% activity) (CYP3A4)
"Cc1nc2ccc(NN=C(C#N)C#N)cc2s1 [Comparative compound 1, N-(2-methylbenzo[d]thiazol-6-yl)carbonohydrazonoyl dicyanide, reference compound]",500 nM,100%,72.9%,79.0%,37.0 % remaining,1.2 % remaining,1.2 % remaining,,,,,
"N#CC(C#N)=NNc1ccc2nc(N3CCOCC3)[nH]c2c1 [Compound 7, (2-morpholino-1H-benzo[d]imidazol-6-yl)carbonohydrazonoyl dicyanide]",64 nM,100%,,,,,,57.6 % activity,67.8 % activity,95.1 % activity,> 100 % activity,83.1 % activity
"Cc1ccc(-c2nc3ccc(NN=C(C#N)C#N)cc3s2)cn1 [Comparative compound 6, N-(2-(6-methylpyridin-3-yl)benzo[d]thiazol-6-yl) carbonohydrazonoyl dicyanide, reference compound]",,,69.5%,60.8%,84.7 % remaining,83.9 % remaining,>100 % remaining,80.2 % activity,32.0 % activity,81.2 % activity,91.8 % activity,81.7 % activity
